This passage reports IC50 and EC50 results from patent publication US20150274777A1, “KETOAMIDE IMMUNOPROTEASOME INHIBITORS” (HOFFMANN-LA ROCHE INC., priority 2012, published 2015).

The target in experiment [1] is T1, β5i (Homo sapiens, UniProt P20618+P28062).
T1 construct: protease activity associated with the proteasome complex in cultured cells; endogenous in cells; host or cells: Ramos cells
In words: Cell-Based Proteasome Activity/Selectivity Assay (Ramos cells), substrate (ANW)2Rh110. The settings on record: highest concentration tested 20 μM, read-out: Ic50 ramos:ac-(anw)2-r110. An excerpt: (§1) Cell-Based Proteasome Activity/Selectivity Assay
(§2) The Cell-Based Proteasome subunit activity/selectivity assay was a panel of 5 fluorogenic assays that independently measured the activity of β5c or β5i (chymotrypsin-like activity), β2c/2i (trypsin-like), and β1c or β1i (caspase-like) protease activity associated with the proteasome complex in cultured cells. Specifically, the following substrates were used for respective subunit activities: β1i: (PAL)2Rh110, β1c: (LLE)2 Rh110, β2c/2i: (KQL)2Rh110, β5c: (WLA)2Rh110, β5i: (ANW)2Rh110. The following procedure was followed:
(§3) Cell preparation: Plated 25 μl of Ramos cells (2×10^6/ml in DPBS) into half area plate (PerkinElmer Cat 6005569) to final 5×10^4 cells/well. Added 0.5 μl of 100×4-fold serial diluted test compounds or DMSO to each well. Highest concentration of compound tested was 20 μM, thus compound serial dilution started from […]. Incubated for 30 minutes at 37° C. Then equilibrated at room temperature for 15 minutes. Added 25 μl of 2× reaction mix consisting of 0.025% digitonin, 20 μM of each substrates and 0.5M sucrose in DPBS. Shaked for one minute @ 700 rpm. Incubated for 120 min at room temperature. Then read the plates with an Envision multilabel plate reader (PerkinElmer) with 500 nm excitation/519 nm emission.

In experiment [2] the test system is IP10 level in PBMCs stimulated with CpG Type A. In words: PBMC IP-10 Assay. The experiment is classed as cell-based. The settings on record: CpG Type A 2.5 μM. How it is done: PBMCs were isolated from whole blood as follows: Blood was collected in a sterile environment in heparinized tubes. Blood was diluted with an equal volume PBS/2% FCS and 30 ml of this mixture was added to ACCUSPIN tubes containing 15 ml Histopaque-1077 already centrifuged at 800 g for 30 seconds and warmed up at room temperature. The tubes were then centrifuged at 800 g for 20 minutes at room temperature with no brake. The mononuclear band, just above the polyethylene frit, was removed by Pasteur pipet. These mononuclear cells were washed three times with sterile PBS, counted, and resuspended in RPMI 1640 supplemented with 10% heat inactivated fetal calf serum, 10 mM HEPES, 1 mM sodium pyruvate, penicillin (50 U/ml), streptomycin (50 μg/ml) and glutamine (2 mM) to approximately 1.5×10^6/ml. Approximately 2×10^5 cells/well were plated in 96 well tissue culture plates (BD Falcon 353072), and preincubated 60 mi/37° C. with a titration of compounds, in a final concentration of 1% DMSO. Cells were then stimulated with CpG Type A (Invivogen, Cat #tlrl-2216; ODN 2216) at a final concentration of 2.5 μM. Cells were incubated overnight, and supernatants were removed. PBMC viability of cells remaining in the well was measured with ATPlite luminescence assay (Perkin-Elmer) per the manufacturer's instructions. Luminescence was measured on the Perkin-Elmer Envision, using the luminescence filter. IP10 level was measured with CXCL10/IP10 AlphaLISA kit (Perkin-Elmer) per the manufacturer's instructions, except halving all volumes. Fluorescence was measured on the Envision Multilabel plate reader, using the AlphaScreen standard settings.

The target in experiment [3] is T2, β1c (Homo sapiens, UniProt P28072+Q99436).
T2 construct: protease activity associated with the proteasome complex in cultured cells; endogenous in cells; host or cells: Ramos cells
Put plainly: Cell-Based Proteasome Activity/Selectivity Assay (Ramos cells), substrate (LLE)2 Rh110. The following applies: highest concentration tested 20 μM.
Source text: as §1, §2, §3

Experiment [4] has as its system β2c/2i. Put plainly: Cell-Based Proteasome Activity/Selectivity Assay (Ramos cells), substrate (KQL)2Rh110. The settings on record: highest concentration tested 20 μM.
Source text: as §1, §2, §3

Experiment [5] addresses T3, β5c (Homo sapiens, UniProt P20618+P28074).
T3 construct: protease activity associated with the proteasome complex in cultured cells; endogenous in cells; host or cells: Ramos cells
Put plainly: Cell-Based Proteasome Activity/Selectivity Assay (Ramos cells), substrate (WLA)2Rh110. The settings on record: highest concentration tested 20 μM.
Source text: as §1, §2, §3

For experiment [6], the target named is T4, β1i (Homo sapiens, UniProt P28065+P40306).
T4 construct: protease activity associated with the proteasome complex in cultured cells; endogenous in cells; host or cells: Ramos cells
In words: Cell-Based Proteasome Activity/Selectivity Assay (Ramos cells), substrate (PAL)2Rh110. The following applies: highest concentration tested 20 μM.
Source text: as §1, §2, §3

The term IC50 denotes the concentration that gives 50% inhibition. What is called EC50 is the concentration at which the effect is half-maximal. Read a low EC50 as an effect from little substance. As to `CC(C)C[C@H](NC(=O)[C@H](C)NC(=O)C1Cc2ccccc2C1)C(=O)N[C@@H](Cc1ccccc1)C(=O)C(=O)NCc1ccccc1` [Example 24, Indan-2-carboxylic acid {(S)-1-[(S)-1-((S)-1-benzyl-2-benzylcarbamoyl-2-oxo-ethylcarbamoyl)-3-methyl-butylcarbamoyl]-ethyl}-amide], the IC50 in experiment [1] is 0.005 µM; in experiment [3], 7.05 µM; in experiment [4] it was 5.71 µM; in experiment [5], 0.272 µM; in experiment [6], 0.441 µM. For the same compound, the EC50 in experiment [2] was determined as 0.433 µM.
In the case of `COc1ccc(C[C@H](NC(=O)[C@H](C)NC(=O)C2=C(C)c3ccccc3C2)C(=O)N[C@@H](Cc2ccccc2)C(=O)C(=O)NCc2ccccc2)cc1` [Example 25, 3-Methyl-1H-indene-2-carboxylic acid {(S)-1-[(S)-1-((S)-1-benzyl-2-benzylcarbamoyl-2-oxo-ethylcarbamoyl)-2-(4-methoxy-phenyl)-ethylcarbamoyl]-ethyl}-amide], the IC50 in experiment [1] is 0.009 µM; in experiment [3], greater than 20 µM; in experiment [4], greater than 20 µM; in experiment [5], 0.846 µM; in experiment [6], greater than 20 µM. The same compound had an EC50 in experiment [2] of 1.07 µM.
Take `COc1ccc(C[C@H](NC(=O)[C@H](C)NC(=O)c2cc3ncccc3n2C)C(=O)N[C@@H](Cc2ccccc2)C(=O)C(=O)NCc2ccccc2)cc1` [Example 45]: the IC50 in experiment [1] is 0.013 µM; in experiment [3], 6.38 µM; in experiment [4], greater than 20 µM; in experiment [5] it was 0.25 µM; in experiment [6] it was 0.496 µM. The EC50 in experiment [2] was determined as 1.32 µM.
For the compound `CC(C)C[C@H](NC(=O)[C@H](C)NC(=O)OCc1ccccc1)C(=O)N[C@@H](Cc1ccccc1)C(=O)C(=O)NCc1ccccc1` [Example 36, {(S)-1-[(S)-1-((S)-1-Benzyl-2-benzylcarbamoyl-2-oxo-ethylcarbamoyl)-3-methyl-butylcarbamoyl]-ethyl}-carbamic acid benzyl ester], the IC50 was 0.062 µM in experiment [1]; greater than 20 µM in experiment [3]; greater than 20 µM in experiment [4]; 0.973 µM in experiment [5]; 0.359 µM in experiment [6]. The compound further gave an EC50 in experiment [2] of 2.8 µM.
Regarding `COc1ccc(C[C@H](NC(=O)C2(NC(=O)OCc3ccccc3)CC2)C(=O)N[C@@H](Cc2ccccc2)C(=O)C(=O)NCc2ccccc2)cc1` [Example 28, {1-[(S)-1-((S)-1-Benzyl-2-benzylcarbamoyl-2-oxo-ethylcarbamoyl)-2-(4-methoxy-phenyl)-ethylcarbamoyl]-cyclopropyl}-carbamic acid benzyl ester], the IC50 in experiment [1] was 0.294 µM; in experiment [3], greater than 20 µM; in experiment [4], greater than 20 µM; in experiment [5], 5.11 µM; in experiment [6] it was 4.74 µM. In experiment [2], this compound had an EC50 of 2.79 µM.
As for `CCCC[C@H](NC(=O)[C@H](Cc1c[nH]c2ccccc12)NC(=O)[C@H](C)NC(=O)OCc1ccccc1)C(=O)C(=O)NCc1ccccc1` [Example 9, {(S)-1-[(S)-1-((S)-1-Benzylaminooxalyl-pentylcarbamoyl)-2-(1H-indol-3-yl)-ethylcarbamoyl]-ethyl}-carbamic acid benzyl ester], the IC50 is 0.026 µM in experiment [1]; greater than 20 µM in experiment [3]; greater than 20 µM in experiment [4]; 0.815 µM in experiment [5]; 0.034 µM in experiment [6]. The same compound returned an EC50 in experiment [2] of 5.29 µM.
On to `C[C@H](NC(=O)N1Cc2ccccc2C1)C(=O)N[C@@H](Cc1ccccc1)C(=O)N[C@@H](Cc1ccccc1)C(=O)C(=O)NCc1ccccc1` [Example 52, 1,3-Dihydro-isoindole-2-carboxylic acid {(S)-1-[(S)-1-((S)-1-benzyl-2-benzylcarbamoyl-2-oxo-ethylcarbamoyl)-2-phenyl-ethylcarbamoyl]-ethyl}-amide], for which the 50% inhibitory concentration (IC50) in experiment [1] is 0.221 µM; in experiment [3], 10.3 µM; in experiment [4], greater than 20 µM; in experiment [5], 2.35 µM; in experiment [6] it was 1.53 µM. Also, in experiment [2], the EC50 stood at 4.5 µM.
For the compound `C[C@H](NC(=O)c1cc2ccccc2n1C)C(=O)N[C@@H](Cc1ccccc1)C(=O)N[C@@H](Cc1ccccc1)C(=O)C(=O)NCc1ccccc1` [Example 44, 1-Methyl-1H-indole-2-carboxylic acid {(S)-1-[(S)-1-((S)-1-benzyl-2-benzylcarbamoyl-2-oxo-ethylcarbamoyl)-2-phenyl-ethylcarbamoyl]-ethyl}-amide], the IC50 in experiment [1] is 0.013 µM; in experiment [3] it was greater than 20 µM; in experiment [4], greater than 20 µM; in experiment [5] it was 1.24 µM; in experiment [6] it was 13.1 µM. In addition, in experiment [2], the response was half-maximal at 0.596 µM (EC50).
As for `C[C@H](NC(=O)OCc1ccccc1)C(=O)N[C@@H](Cc1ccccn1)C(=O)N[C@@H](Cc1ccccc1)C(=O)C(=O)NCc1ccccc1` [Example 50, {(S)-1-[(S)-1-((S)-1-Benzyl-2-benzylcarbamoyl-2-oxo-ethylcarbamoyl)-2-pyridin-2-yl-ethylcarbamoyl]-ethyl}-carbamic acid benzyl ester], the IC50 is 0.266 µM in experiment [1]; greater than 20 µM in experiment [3]; greater than 20 µM in experiment [4]; 2.89 µM in experiment [5]; 1.28 µM in experiment [6]. Further, in experiment [2], the EC50 came to 2.74 µM.
Regarding `COc1ccc(C[C@H](NC(=O)[C@H](C)NS(=O)(=O)c2ccccc2)C(=O)N[C@@H](Cc2ccccc2)C(=O)C(=O)NCc2ccccc2)cc1` [Example 39, (S)-3-[(S)-2-((S)-2-Benzenesulfonylamino-propionylamino)-3-(4-methoxy-phenyl)-propionylamino]-N-benzyl-2-oxo-4-phenyl-butyramide], the IC50 in experiment [1] is 0.029 µM; in experiment [3] it was greater than 20 µM; in experiment [4] it was greater than 20 µM; in experiment [5], 1.38 µM; in experiment [6] it was 0.605 µM. For the same compound, the EC50 in experiment [2] came to 2.32 µM.
For `CC1=C(C(=O)N[C@@H](C)C(=O)N[C@@H](CCS(C)(=O)=O)C(=O)N[C@@H](Cc2ccccc2)C(=O)C(=O)NCc2ccccc2)Cc2ccccc21` [Example 20, 3-Methyl-1H-indene-2-carboxylic acid {(S)-1-[(S)-1-((S)-1-benzyl-2-benzylcarbamoyl-2-oxo-ethylcarbamoyl)-3-methanesulfonyl-propylcarbamoyl]-ethyl}-amide], the IC50 in experiment [1] was 0.015 µM; in experiment [3] it was greater than 20 µM; in experiment [4], greater than 20 µM; in experiment [5] it was 0.157 µM; in experiment [6], 0.738 µM. In experiment [2], this compound registered an EC50 of 1.64 µM.
Turning to `CCn1nccc1C(=O)N[C@@H](C)C(=O)N[C@@H](Cc1ccccc1)C(=O)N[C@@H](Cc1ccccc1)C(=O)C(=O)NCc1ccccc1` [Example 54, 2-Ethyl-2H-pyrazole-3-carboxylic acid {(S)-1-[(S)-1-((S)-1-benzyl-2-benzylcarbamoyl-2-oxo-ethylcarbamoyl)-2-phenyl-ethylcarbamoyl]-ethyl}-amide], the IC50 in experiment [1] was 0.066 µM; in experiment [3] it was 18.5 µM; in experiment [4] it was greater than 20 µM; in experiment [5], 1.68 µM; in experiment [6] it was 0.609 µM. Moreover, the EC50 in experiment [2] worked out at 3.45 µM.
Turning to `CCCC[C@H](NC(=O)[C@H](Cc1c[nH]c2ccccc12)NC(=O)[C@H](C)NC(=O)C1=C(C)c2ccccc2C1)C(=O)C(=O)NCc1ccccc1` [Example 5, 3-Methyl-1H-indene-2-carboxylic acid {(S)-1-[(S)-1-((S)-1-benzylaminooxalyl-pentylcarbamoyl)-2-(1H-indol-3-yl)-ethylcarbamoyl]-ethyl}-amide], the IC50 is 0.018 µM in experiment [1]; 3.35 µM in experiment [3]; greater than 20 µM in experiment [4]; 0.56 µM in experiment [5]; 0.142 µM in experiment [6]. The EC50 in experiment [2] came to 1.22 µM.
